Biological target: T1, NADPH oxidase 1 (Homo sapiens, UniProt Q9Y5S8)
T1 sequence (Q9Y5S8 whole entry): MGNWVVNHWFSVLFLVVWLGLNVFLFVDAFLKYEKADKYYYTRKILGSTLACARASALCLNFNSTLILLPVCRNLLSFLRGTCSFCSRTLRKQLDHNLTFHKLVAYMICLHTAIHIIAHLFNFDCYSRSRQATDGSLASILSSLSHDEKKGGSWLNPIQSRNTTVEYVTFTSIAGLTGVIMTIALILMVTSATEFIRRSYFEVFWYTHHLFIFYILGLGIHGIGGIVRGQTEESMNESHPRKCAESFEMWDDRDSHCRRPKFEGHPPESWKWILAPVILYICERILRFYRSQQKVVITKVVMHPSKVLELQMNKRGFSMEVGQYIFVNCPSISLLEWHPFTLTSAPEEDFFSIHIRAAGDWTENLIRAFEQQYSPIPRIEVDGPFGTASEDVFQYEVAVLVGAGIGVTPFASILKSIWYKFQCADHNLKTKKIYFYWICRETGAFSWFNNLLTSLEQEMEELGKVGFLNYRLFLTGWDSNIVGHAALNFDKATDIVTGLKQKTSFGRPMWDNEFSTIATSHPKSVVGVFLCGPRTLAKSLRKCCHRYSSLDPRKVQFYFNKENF
Assay: xanthine oxidase inhibitors, late-stage follow-up, NOX1 inhibitor project, biochemical, IC50, set 2 (AID 435009)

## CN(C)c1ccc(CN=Nc2c(Cl)cncc2Cl)cc1
  IC50: > 50 µM

## Oc1c(Br)cc(CN=Nc2c(Cl)cncc2Cl)cc1Br [4-[[2-[3,5-bis(chloranyl)pyridin-4-yl]hydrazinyl]methylidene]-2,6-bis(bromanyl)cyclohexa-2,5-dien-1-one]
  IC50: > 50 µM
